In PMC4672351, “Drug-Drug Interaction Potentials of Tyrosine Kinase Inhibitors via Inhibition of UDP-Glucuronosyltransferases” (Scientific Reports, 2015):
One block for each compound: values may come before it.

Experiments:
[1] = target: T1, UGT1A6 (Homo sapiens, UniProt P19224); assay: Inhibition of 4-MU glucuronidation by recombinant UGT1A6; type: in vitro ADME; details: recombinant UGT1A6, pH 7.4, probe 4-MU, 100 μM inhibitor, 4-MU substrate, positive control diclofenac, read-out: Remaining activities (%) of UGT1A6
T1 construct: purchased BD Gentest (Woburn, MA); host or cells: baculovirus-infected insect cells
T1 sequence (P19224 27-532): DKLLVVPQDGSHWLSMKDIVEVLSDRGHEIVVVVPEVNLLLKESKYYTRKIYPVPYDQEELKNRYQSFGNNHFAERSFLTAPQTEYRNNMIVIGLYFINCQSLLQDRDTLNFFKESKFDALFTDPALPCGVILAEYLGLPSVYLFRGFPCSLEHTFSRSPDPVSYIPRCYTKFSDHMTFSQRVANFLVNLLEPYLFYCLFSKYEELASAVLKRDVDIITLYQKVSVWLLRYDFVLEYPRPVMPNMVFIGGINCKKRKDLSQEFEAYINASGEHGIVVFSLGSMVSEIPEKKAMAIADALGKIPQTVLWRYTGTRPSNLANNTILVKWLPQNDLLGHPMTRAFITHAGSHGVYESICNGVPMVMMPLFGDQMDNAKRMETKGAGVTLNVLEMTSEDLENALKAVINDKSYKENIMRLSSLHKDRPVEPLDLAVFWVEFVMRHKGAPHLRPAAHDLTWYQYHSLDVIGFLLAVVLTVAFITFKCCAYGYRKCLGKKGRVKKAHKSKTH

[2] = target: T2, UGT1A9 (Homo sapiens, UniProt O60656); assay: in vitro; details: recombinant UGT1A9, pH 7.4, probe 4-MU
T2 sequence (O60656 26-530): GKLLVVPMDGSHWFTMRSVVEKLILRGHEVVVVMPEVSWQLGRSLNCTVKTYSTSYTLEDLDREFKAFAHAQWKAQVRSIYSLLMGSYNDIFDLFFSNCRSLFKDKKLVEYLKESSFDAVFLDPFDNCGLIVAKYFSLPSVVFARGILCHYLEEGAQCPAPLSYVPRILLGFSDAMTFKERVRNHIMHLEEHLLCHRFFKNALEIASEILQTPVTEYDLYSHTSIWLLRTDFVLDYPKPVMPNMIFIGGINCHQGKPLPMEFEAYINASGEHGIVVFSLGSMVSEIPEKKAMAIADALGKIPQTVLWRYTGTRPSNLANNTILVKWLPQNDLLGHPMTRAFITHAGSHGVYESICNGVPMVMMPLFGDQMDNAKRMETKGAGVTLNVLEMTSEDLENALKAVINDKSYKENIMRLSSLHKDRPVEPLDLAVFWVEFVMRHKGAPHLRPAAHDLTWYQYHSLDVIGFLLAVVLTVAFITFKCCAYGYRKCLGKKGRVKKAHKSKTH

[3] = target: T3, UGT1A1 (Homo sapiens, UniProt P22309); assay: Inhibition of 4-MU glucuronidation by recombinant UGT1A1; details: human, recombinant UGT1A1, pH 7.4, probe 4-MU
T3 sequence (P22309 26-533): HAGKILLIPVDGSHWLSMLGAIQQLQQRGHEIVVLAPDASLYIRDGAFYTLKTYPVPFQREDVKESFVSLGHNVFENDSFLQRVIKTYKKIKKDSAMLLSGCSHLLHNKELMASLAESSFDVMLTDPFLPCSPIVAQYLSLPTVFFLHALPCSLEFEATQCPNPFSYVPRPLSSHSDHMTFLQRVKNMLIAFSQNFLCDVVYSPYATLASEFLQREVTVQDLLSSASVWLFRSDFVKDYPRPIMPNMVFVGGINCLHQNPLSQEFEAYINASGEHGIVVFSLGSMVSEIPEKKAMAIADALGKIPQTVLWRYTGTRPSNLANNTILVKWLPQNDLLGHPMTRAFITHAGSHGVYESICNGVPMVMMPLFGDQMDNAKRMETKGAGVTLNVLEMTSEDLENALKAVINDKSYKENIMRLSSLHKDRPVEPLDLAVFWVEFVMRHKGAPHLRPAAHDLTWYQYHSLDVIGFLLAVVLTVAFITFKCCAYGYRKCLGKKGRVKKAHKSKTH

[4] = target: T4, UGT1A7 (Homo sapiens, UniProt Q9HAW7); assay: Inhibition of 4-MU glucuronidation by recombinant UGT1A7; details: human, recombinant UGT1A7, pH 7.4, probe 4-MU
T4 sequence (Q9HAW7 26-530): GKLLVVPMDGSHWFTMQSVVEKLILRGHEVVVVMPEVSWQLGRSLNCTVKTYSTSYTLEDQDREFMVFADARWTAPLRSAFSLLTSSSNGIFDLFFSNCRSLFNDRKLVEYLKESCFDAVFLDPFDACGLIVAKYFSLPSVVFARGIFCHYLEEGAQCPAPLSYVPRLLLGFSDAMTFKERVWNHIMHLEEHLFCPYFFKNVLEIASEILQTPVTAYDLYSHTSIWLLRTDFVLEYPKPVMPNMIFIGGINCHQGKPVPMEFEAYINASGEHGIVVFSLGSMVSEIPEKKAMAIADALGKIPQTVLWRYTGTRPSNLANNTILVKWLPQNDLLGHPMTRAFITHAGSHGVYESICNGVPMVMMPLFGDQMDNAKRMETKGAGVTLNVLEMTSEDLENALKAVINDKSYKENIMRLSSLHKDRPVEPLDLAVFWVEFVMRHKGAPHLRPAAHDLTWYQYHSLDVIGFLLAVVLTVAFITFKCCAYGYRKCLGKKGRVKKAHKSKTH

[5] = target: T5, UGT1A8 (Homo sapiens, UniProt Q9HAW9); assay: Inhibition of 4-MU glucuronidation by recombinant UGT1A8; details: recombinant UGT1A8, pH 7.4, probe 4-MU
T5 sequence (Q9HAW9 26-530): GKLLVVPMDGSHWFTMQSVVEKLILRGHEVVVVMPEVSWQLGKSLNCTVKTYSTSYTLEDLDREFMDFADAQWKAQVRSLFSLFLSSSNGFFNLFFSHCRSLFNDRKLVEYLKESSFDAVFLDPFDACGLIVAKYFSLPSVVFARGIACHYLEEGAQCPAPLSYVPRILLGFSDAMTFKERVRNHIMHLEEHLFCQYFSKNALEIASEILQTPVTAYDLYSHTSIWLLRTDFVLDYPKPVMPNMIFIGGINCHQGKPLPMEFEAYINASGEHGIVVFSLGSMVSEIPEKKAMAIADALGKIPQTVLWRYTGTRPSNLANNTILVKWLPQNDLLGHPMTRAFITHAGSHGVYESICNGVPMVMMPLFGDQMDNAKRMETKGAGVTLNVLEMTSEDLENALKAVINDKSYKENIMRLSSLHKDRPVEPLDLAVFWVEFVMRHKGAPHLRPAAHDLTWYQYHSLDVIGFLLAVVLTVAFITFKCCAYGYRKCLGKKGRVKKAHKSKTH

[6] = target: T6, UGT1A10 (Homo sapiens, UniProt Q9HAW8); assay: Inhibition of 4-MU glucuronidation by recombinant UGT1A10; details: recombinant UGT1A10, pH 7.4, probe 4-MU
T6 sequence (Q9HAW8 26-530): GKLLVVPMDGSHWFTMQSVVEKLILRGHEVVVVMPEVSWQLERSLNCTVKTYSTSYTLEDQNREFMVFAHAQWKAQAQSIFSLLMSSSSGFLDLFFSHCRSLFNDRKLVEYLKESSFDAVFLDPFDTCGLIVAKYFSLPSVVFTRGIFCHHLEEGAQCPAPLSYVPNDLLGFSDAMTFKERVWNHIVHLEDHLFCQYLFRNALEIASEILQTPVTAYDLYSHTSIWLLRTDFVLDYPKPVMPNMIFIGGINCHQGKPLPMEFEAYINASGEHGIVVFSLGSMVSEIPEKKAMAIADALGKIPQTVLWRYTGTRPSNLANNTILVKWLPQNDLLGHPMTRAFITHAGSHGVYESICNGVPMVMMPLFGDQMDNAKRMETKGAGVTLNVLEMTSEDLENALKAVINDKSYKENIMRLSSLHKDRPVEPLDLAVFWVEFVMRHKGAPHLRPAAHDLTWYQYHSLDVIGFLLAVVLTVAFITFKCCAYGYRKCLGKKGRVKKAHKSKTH

[7] = target: T7, UGT1A4 (Homo sapiens, UniProt P22310); assay: Inhibition of TFP glucuronidation by recombinant UGT1A4; details: 100 μM inhibitor; TFP substrate; positive control hecogenin
T7 sequence (P22310 29-534): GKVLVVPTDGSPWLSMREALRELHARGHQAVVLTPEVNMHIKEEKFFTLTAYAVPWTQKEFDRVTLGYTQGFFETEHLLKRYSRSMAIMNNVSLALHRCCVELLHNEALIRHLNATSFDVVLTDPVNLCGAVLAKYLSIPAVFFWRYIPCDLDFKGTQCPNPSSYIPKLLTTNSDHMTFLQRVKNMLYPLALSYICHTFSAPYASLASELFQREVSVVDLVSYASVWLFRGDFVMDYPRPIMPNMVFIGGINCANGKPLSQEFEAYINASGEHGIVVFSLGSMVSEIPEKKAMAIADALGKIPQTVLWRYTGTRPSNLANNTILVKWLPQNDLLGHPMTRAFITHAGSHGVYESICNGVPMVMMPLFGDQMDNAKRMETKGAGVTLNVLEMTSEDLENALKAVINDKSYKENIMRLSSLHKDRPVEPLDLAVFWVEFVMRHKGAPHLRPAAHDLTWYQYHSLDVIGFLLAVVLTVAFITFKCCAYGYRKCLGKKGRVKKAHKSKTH

- activity at 30 min, 100 µM [1]: 28.2 ± 10%
- activity at 30 min, 100 µM [2]: 15.2 ± 1.2%
- activity at 120 min, 100 µM [3]: 37 ± 2.1%
- activity at 30 min, 100 µM [4]: 25.6 ± 11.2%
Compound: O=C(O)Cc1ccccc1Nc1c(Cl)cccc1Cl [diclofenac]

- activity at 30 min, 100 µM [5]: 40.2 ± 5.3%
- activity at 120 min, 100 µM [6]: 37.8 ± 8%
Compound: CCCCC1C(=O)N(c2ccccc2)N(c2ccccc2)C1=O [phenylbutazone]

Compound: hecogenin
- Remaining activities (%) of UGT1A4 [7]: 20.3 ± 6.6%
